Values quoted from earlier work, collected in patent US20070149611A1, “CB-DELTA8-THC COMPOSITION” (priority 2003, published 2007).

What was measured:
[1] = CBD alone
[2] = more effective than Δ^9-THC; Abrahamov et al, 1995
[3] = relative to Δ^9-THC
[4] = Δ^9-THC is easily oxidized to cannabinol

Compound	effects when administered on its own [1]	anti-emetic effectiveness relative to Δ^9-THC [2] [%]	psychometric potency, less potent than Δ^9-THC (generally considered) [3] [%]	psychometric potency, times less potent than Δ^9-THC (in some cases) [3]	stability towards oxidation to cannabinol [4]
C=C(C)[C@@H]1CCC(C)=C[C@H]1c1c(O)cc(CCCCC)cc1O [CBD, cannabidiol]	no noticeable effects				
CCCCCc1cc(O)c2c(c1)OC(C)(C)[C@@H]1CC=C(C)C[C@@H]21 [Δ^8-THC, Δ^8-tetrahydrocannabinol]		200	50	3-10 times	very stable
